Source: patent publication US20160067425A1, “DEVICES AND METHODS FOR TREATING TISSUES AND TISSUE CONDITIONS” (priority 2014, published 2016)

Assays:
[1] = tested on: basal cell carcinoma (BCC); assay: Intralesional treatment of clamp-isolated basal cell carcinoma on the ear lobe (Example 1); format: in vivo, human
Description: A person with basal cell carcinoma (one year history of asymptomatic growth) on their left ear lobe was treated by mechanically isolating the basal cell carcinoma (BCC). Diagnosis of BCC was made based on the lesion's clinical presentation as a well-circumscribed pearly nodule with central crusted ulceration (see FIG. 14A) and the results of a shave biopsy (see FIG. 15A). The patient refused surgical therapy.
A chalazion clamp was used to isolate the tissue surrounding the BCC. One fifth unit (0.2 cc×1 unit/cc) of bleomycin in 1% lidocaine was injected into the clamped region (systemic bleomycin concentrations are typically in the range of 0.00023 units/mL or about 1000×lower). […] After 20 minutes, an 18-gauge needle was used to remove most of the injected fluid from the clamped area. The chalazion clamp was then removed.

[2] = typical systemic range, compared with 1 unit/cc injected; cited from earlier work

## bleomycin
[1]; 0.2 unit intralesional in clamped region, 20 minutes
  adverse effects / patient complaints: no adverse effects
[1]; chalazion clamp, evidenced by localized raised and stretched area of the skin
  retention of injected agent in the pressure isolated region: remained within the clamped area
[1]; patient, left ear lobe, 0.2 cc x 1 unit/cc in 1% lidocaine injected into chalazion-clamped region, removed after 20 minutes, 25-days post-treatment
  clinical appearance of the BCC after treatment: clinically cured
[1]; post-treatment punch biopsy, FIG. 15B
  histology from 4 mm punch biopsy after treatment: confirm by histology
[2]
  systemic concentrations typically used: ~0.00023 units/mL
